According to PMC5301048, “Selection and early clinical evaluation of the brain‐penetrant 11β‐hydroxysteroid dehydrogenase type 1 (11β‐HSD1) inhibitor UE2343 (Xanamem™)” (British Journal of Pharmacology, 2017):
Where two headings read alike, the source gives them in different places.

How the values were obtained:
[1] = Plasma protein binding, rat plasma; format: in vitro ADME; conditions: mean ± SD [n]
[2] = Microsomal stability, human liver microsomes; format: in vitro ADME; conditions: mean ± SD [n]
Description: Microsomal stability was determined using pooled human, rat or dog liver microsomes according to the method described in WO2011135276 (Webster et al., 2011a).

[3] = molecular target: T1, CYP2C9 (Homo sapiens, UniProt P11712); experiment: Cytochrome P450 inhibition, CYP2C9; format: in vitro ADME; conditions: human liver microsomes; read-out: CYP450 isoform 2C9 IC50
T1 construct: tissue Cyprotex Discovery Limited; host or cells: human liver microsomes
Description: (§1) Testing was performed by Cyprotex Discovery Limited, Cheshire, UK. Six test compound concentrations (0.4, 1, 4, 10, 40 and 100 μM; final DMSO concentration 0.25%, final microsome concentration 0.25 mg·mL^−1) were either pre‐incubated for 30 min in the absence and presence of NADPH or underwent a 0 min pre‐incubation with human liver microsomes. At the end of the pre‐incubation period, the probe substrate for each cytochrome P450 (CYP450) isoform (30 μM) and NADPH (1 mM) were then added (final DMSO concentration 0.3%), and the samples were incubated for 5 min at 37°C. Probe substrates were as follows: 1A2 – phenacetin, 2C9 – diclofenac, 2C19 – mephenytoin, 2D6 – dextromethorphan, 3A4 – midazolam and testosterone. Samples were subjected to LC–MS/MS analysis to determine metabolite concentrations. A decrease in the formation of the metabolite compared with vehicle control was used to calculate an IC50 value (test compound concentration which produces 50% inhibition) for each experimental condition.

[4] = molecular target: T2, CYP2C19 (Homo sapiens, UniProt P33261); experiment: Cytochrome P450 inhibition, CYP2C19; format: in vitro ADME; conditions: human liver microsomes; read-out: CYP450 isoform 2C19 IC50
T2 construct: tissue Cyprotex Discovery Limited; host or cells: human liver microsomes
Description: as §1

[5] = Single ascending dose study, pharmacokinetics; format: in vivo; conditions: human; for half-life / Cmax / Tmax / CL renal: both sexes; for half-life / Cmax / Tmax: plasma; for Tmax: median (range); for CL renal: urine and plasma
Description: A double‐blind, randomized, placebo‐controlled single ascending dose study was carried out at Simbec Research Ltd, Merthyr Tydfil, UK. Each cohort consisted of six healthy male subjects and two females of non‐child bearing potential. Two male ‘dose leader’ subjects (1 active : 1 placebo) were dosed first in each cohort. The remainder of the cohort (5 active : 1 placebo) were dosed 24 h later. Dose cohorts were 2, 5, 10, 18, 25 and 35 mg. Safety, pharmacokinetic and pharmacodynamic assessments were made at pre‐determined time‐points during each part of the study. Dose escalation was dependent upon satisfactory review of the blinded safety (up to Day 6) and pharmacokinetic (up to 24 h post‐dose) data from the preceding cohort.
Laboratory evaluation of clinical safety parameters was carried out using standard validated methods. Measurement of plasma pharmacodynamic markers [adrenocorticotropic hormone (ACTH), cortisol, 4‐androstenedione, testosterone and dehydroepiandrosterone sulphate (DHEA‐s)] was carried out using commercially available kits. Each method was fully validated prior to analysis. Urinary steroid metabolites were measured according to established methods (Boonen et al., 2013). UE2343 levels in plasma, urine and CSF was determined by LC–MS/MS using fully validated methods.
The data and statistical analysis comply with the recommendations on experimental design and analysis in pharmacology (Curtis et al., 2015). Levels of probability, P < 0.05 were deemed to constitute the threshold for statistical significance. Pharmacokinetic parameters, except Tmax (time of maximum observed drug concentration), are given as mean ± coefficient of variation (CV%). Tmax is given as median ± range. For each of the pharmacodynamic parameters [ACTH, cortisol, adrenal androgens, tetrahydrocortisols (THFs)/tetrahydrocortisone (THE) ratio], the maximum % change from baseline for each subject was subjected to ANOVA. For selected data, an additional covariate factor for the baseline was also included in the ANOVA/analysis of covariance (ANCOVA) model. Associated P‐values <0.05 for each comparison have been presented.

[6] = system: 29 enzymes and 72 receptors, including the glucocorticoid and mineralocorticoid receptors; experiment: Off-target diversity screen (data not shown); conditions: in words
[7] = Plasma protein binding, human plasma; format: in vitro ADME
Description: Plasma protein binding was determined using pooled human plasma according to the method described in WO2011135276 (Webster et al., 2011a).

[8] = molecular target: T3, CYP2D6 (Homo sapiens, UniProt P10635); experiment: Cytochrome P450 inhibition, CYP2D6; format: in vitro ADME; conditions: human liver microsomes; read-out: CYP450 isoform 2D6 IC50
T3 construct: tissue Cyprotex Discovery Limited; host or cells: human liver microsomes
Description: as §1

[9] = molecular target: T4, human 11β‐HSD1 (Homo sapiens, UniProt P28845); experiment: Inhibition of human 11β-HSD1 in stably transfected HEK293 cells; format: cell-based
T4 construct: a construct containing the full‐length gene coding for the human 11β‐HSD1 enzyme; expressed in transfected cells; host or cells: HEK293
Description: Inhibition of human 11β‐HSD1 was determined in HEK293 cells stably transfected with a construct containing the full‐length gene coding for the human 11β‐HSD1 enzyme according to the protocol described by Sooy et al., 2010.

[10] = single oral dose 10 mg, mean (CV%)
[11] = single oral dose 18 mg, mean (CV%)
[12] = single oral dose 25 mg, mean (CV%)
[13] = single oral dose 35 mg, mean (CV%)

T4 sequence (P28845 whole entry): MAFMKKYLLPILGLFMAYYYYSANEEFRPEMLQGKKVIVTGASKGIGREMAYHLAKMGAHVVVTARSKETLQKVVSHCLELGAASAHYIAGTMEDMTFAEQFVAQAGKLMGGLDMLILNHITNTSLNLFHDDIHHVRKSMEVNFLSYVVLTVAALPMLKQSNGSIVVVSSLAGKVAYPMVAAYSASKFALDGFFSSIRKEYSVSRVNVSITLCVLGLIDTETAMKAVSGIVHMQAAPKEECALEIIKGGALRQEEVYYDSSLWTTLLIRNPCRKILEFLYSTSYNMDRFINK
T1 sequence (P11712 whole entry, canonical isoform): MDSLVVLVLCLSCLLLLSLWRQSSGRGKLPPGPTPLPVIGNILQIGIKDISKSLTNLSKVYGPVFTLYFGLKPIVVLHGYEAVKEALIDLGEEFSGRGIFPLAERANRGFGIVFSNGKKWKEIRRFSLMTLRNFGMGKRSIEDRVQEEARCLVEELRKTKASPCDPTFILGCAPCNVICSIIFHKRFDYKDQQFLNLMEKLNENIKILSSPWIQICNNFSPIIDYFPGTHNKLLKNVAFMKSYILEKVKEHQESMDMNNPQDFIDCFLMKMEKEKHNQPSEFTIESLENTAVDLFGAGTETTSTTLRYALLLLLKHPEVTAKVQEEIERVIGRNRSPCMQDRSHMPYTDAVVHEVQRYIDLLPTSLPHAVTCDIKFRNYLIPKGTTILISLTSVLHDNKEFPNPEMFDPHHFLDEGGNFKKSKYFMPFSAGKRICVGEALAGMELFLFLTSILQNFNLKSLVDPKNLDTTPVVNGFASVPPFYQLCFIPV
T2 sequence (P33261 whole entry, canonical isoform): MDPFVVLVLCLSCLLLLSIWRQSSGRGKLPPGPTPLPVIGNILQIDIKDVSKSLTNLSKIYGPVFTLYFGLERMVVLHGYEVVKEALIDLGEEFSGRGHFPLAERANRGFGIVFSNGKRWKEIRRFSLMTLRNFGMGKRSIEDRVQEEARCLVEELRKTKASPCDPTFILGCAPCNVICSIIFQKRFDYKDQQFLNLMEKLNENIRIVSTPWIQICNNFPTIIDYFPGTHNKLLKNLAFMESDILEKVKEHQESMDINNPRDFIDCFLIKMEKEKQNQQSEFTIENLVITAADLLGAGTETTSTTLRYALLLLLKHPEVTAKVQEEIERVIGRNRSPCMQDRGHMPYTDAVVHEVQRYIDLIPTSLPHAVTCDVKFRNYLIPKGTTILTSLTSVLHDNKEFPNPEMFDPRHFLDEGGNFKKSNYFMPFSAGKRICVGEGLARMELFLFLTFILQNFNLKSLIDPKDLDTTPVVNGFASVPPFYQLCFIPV
T3 sequence (P10635 whole entry, canonical isoform): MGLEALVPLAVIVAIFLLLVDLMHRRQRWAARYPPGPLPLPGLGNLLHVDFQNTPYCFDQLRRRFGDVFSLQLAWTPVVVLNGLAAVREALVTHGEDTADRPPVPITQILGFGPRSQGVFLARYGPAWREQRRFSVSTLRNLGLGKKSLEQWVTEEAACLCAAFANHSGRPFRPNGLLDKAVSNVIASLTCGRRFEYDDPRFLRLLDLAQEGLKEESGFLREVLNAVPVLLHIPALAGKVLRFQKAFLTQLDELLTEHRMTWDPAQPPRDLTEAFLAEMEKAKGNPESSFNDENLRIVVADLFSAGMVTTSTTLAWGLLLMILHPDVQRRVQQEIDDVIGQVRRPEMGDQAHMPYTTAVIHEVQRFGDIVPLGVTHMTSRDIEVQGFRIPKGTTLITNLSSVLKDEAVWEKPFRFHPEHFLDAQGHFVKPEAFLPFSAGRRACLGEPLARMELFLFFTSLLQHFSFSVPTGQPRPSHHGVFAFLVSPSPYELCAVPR

Plasma protein binding (% unbound), rat [1]: 26 ± 0 [2] % unbound
Liver microsomal stability (% parent at 30 min), human [2]: 99 ± 1 [3] % parent at 30 min
IC50 [3]: > 50000 nM
IC50 [4]: 1700 nM
half-life ([5]; oral, single doses, range across doses): 10.5 to 18.7 h
Cmax [5, 10]: 40.4 ng/mL
half-life [5, 10]: 18.7 h
Tmax ([5]; single oral dose 10 mg): 3.5 h
Cmax [5, 11]: 136 ng/mL
half-life [5, 11]: 13.6 h
Tmax ([5]; single oral dose 18 mg): 4 h
Cmax [5, 12]: 278 ng/mL
half-life [5, 12]: 10.5 h
Tmax ([5]; single oral dose 25 mg): 4 h
Cmax [5, 13]: 329 ng/mL
half-life [5, 13]: 11.4 h
Tmax ([5]; single oral dose 35 mg): 4 h
CL renal ([5]; oral, single doses, read-out: renal clearance (CLR)): < 2.17 mL/min
CL renal ([5]; single oral dose 10 mg, mean (CV%), read-out: CLR (renal clearance) (converted)): 1.17 mL/min
CL renal ([5]; single oral dose 18 mg, mean (CV%), read-out: CLR (renal clearance) (converted)): 2.67 mL/min
CL renal ([5]; single oral dose 25 mg, mean (CV%), read-out: CLR (renal clearance) (converted)): 2.17 mL/min
CL renal ([5]; single oral dose 35 mg, mean (CV%), read-out: CLR (renal clearance) (converted)): 2 mL/min
Urinary excretion, % of the respective doses ([5]; single doses): ≤ 1.8%
Plasma levels ([5]; single doses of 2 and 5 mg, in words): below the level of quantification
AUC0‐t [5, 10]: 550 (90%) ng^.h·mL^−1
AUC0‐∞ [5, 10]: 856 (70%) ng^.h·mL^−1
Oral clearance [5, 10]: 18.5 (75%) L·h^−1
AUC0‐t [5, 11]: 2291 (87%) ng^.h·mL^−1
AUC0‐∞ [5, 11]: 2581 (84%) ng^.h·mL^−1
Oral clearance [5, 11]: 14.5 (90%) L·h^−1
AUC0‐t [5, 12]: 3486 (39%) ng^.h·mL^−1
AUC0‐∞ [5, 12]: 3825 (35%) ng^.h·mL^−1
Oral clearance [5, 12]: 7.32 (38%) L·h^−1
AUC0‐t [5, 13]: 4016 (30%) ng^.h·mL^−1
AUC0‐∞ [5, 13]: 4261 (29%) ng^.h·mL^−1
Oral clearance [5, 13]: 8.78 (28%) L·h^−1
off‐target profile in diversity screen [6]: clean off‐target profile
Plasma protein binding (% unbound), human ([7]; human plasma, mean ± SD [n]): 30 ± 2 [2] % unbound
fraction unbound ([7]; human, pooled human plasma, read-out: bound to plasma proteins (converted)): 0.3
IC50 [8]: > 50000 nM
IC50 ([9]; HEK293 cell IC50 in ng·mL^−1, read-out: IC50 value (11β‐HSD1) expressed as mass concentration (converted)): 23.6 nM
IC50 ([9]; HEK293 cells, mean ± SD [n], read-out: Human 11β‐HSD1 IC50 in HEK293 cells): 24 ± 15 nM
SMILES: O=C(c1csc(-c2cn[nH]c2)c1)N1C2CCC1CC(O)(c1ncccn1)C2 (centres unmarked) [compound 4]
Ae(0–120h) (%) [5, 10]: 0.53 (85%)
Ae(0–120h), amount excreted in urine [5, 10]: 52.5 (85%) μg
Ae(0–120h) (%) [5, 11]: 1.67 (66%)
Ae(0–120h), amount excreted in urine [5, 11]: 300 (66%) μg
Ae(0–120h) (%) [5, 12]: 1.75 (37%)
Ae(0–120h), amount excreted in urine [5, 12]: 438 (37%) μg
Ae(0–120h) (%) [5, 13]: 1.43 (15%)
Ae(0–120h), amount excreted in urine [5, 13]: 501 (15%) μg
